Experimental findings from ChEMBL document CHEMBL4229331, “Synthesis and biological evaluation of 173-dicarboxylethyl-pyropheophorbide-a amide derivatives for photodynamic therapy” (Bioorg Med Chem Lett, 2018) are described below.

A short description of data set [1]: Octanol/water partition coefficient, log P of the compound by shake-flask method. It is filed as physicochemical.
The nature of data set [2]: […] assessed as singlet oxygen release by measuring DPBF oxidation rate in presence of 650 nm light by UV-vis spectrophotometer. The format is functional.
The subject of data set [3] is ECa-109 cell line. As to the kind of experiment: Induction of apoptosis in human ECA109 cells assessed as early apoptotic cells at 5 uM preincubated for 24 hrs followed by laser irradiation at 16 J/cm'2 and measured after 24 hrs by annexin V/propidium iodide staining-based flow cytometric method (reference value: 2.45%). It is filed as functional. On the technique in general: In flow cytometry, cells or beads pass a laser one at a time.

For data set [4], the system named is ECa-109 cell line. As to the kind of experiment: Antitumor activity against human ECA109 cells xenografted in BALB/c nude mouse assessed as decrease in tumor volume at 3 mg/kg, iv measured at 3 to 21 days post treatment in presence of 100 J/cm2 laser irradiation. The format is functional, organism-based. Background: A xenograft is tissue or cells of one species grown in another, often human tumour cells in immunodeficient mice.

In data set [5] the test system is ECa-109 cell line. As to the kind of experiment: Induction of apoptosis in human ECA109 cells assessed as late apoptotic/necrotic cells at 5 uM preincubated for 24 hrs followed by laser irradiation at 16 J/cm'2 and measured after 24 hrs by annexin V/propidium iodide staining-based flow cytometric method (reference value: 0.08%). It is filed as functional.
The test system of data set [6] is ECa-109 cell line. As to the kind of experiment: Photocytotoxicity against human ECA109 cells assessed as decrease in cell viability at 1 uM preincubated for 24 hrs followed by laser irradiation at 1 to 32 J/Cm'2 by MTT assay. It is filed as functional, cell-based. (In general: Formazan colour is commonly taken as a measure of viable cells.)
The nature of data set [7]: Dark toxicity in human ECA109 cells assessed as cell viability at 5 uM after 24 hrs by MTT assay (reference value: 80%). The following applies: read-out: Activity. It is filed as cell-based, ECa-109.
Data set [8] is described as follows: Drug uptake in nuclear membrane of human ECA109 cells at 5 uM incubated for 4 hrs in dark condition by Hoechst 33342 staining-based confocal fluorescence microscopy. It is filed as ADME, cell membranes. The following applies: eca-109, 4 h.
A short description of data set [9]: Drug uptake in cytoplasm of human ECA109 cells at 5 uM incubated for 4 hrs in dark condition by Hoechst 33342 staining-based confocal fluorescence microscopy. The following applies: eca-109, 4 h. The format is ADME, subcellular.
The subject of data set [10] is ECa-109 cell line. As to the kind of experiment: Induction of apoptosis in human ECA109 cells assessed as increase in late apoptotic/necrotic cells preincubated for 24 hrs followed by laser irradiation at 16 J/cm'2 and measured after 24 hrs by annexin V/propidium iodide staining-based flow cytometric method. It is filed as functional, cell-based.
Data set [11] in a line: Dark toxicity in human ECA109 cells assessed as decrease in cell viability up to 1 uM after 24 hrs by MTT assay. It is filed as cell-based. The following applies: eca-109, 24 h.
Data set [12] concerns ECa-109 cell line. As to the kind of experiment: Decrease in tumor volume in human ECA109 cells xenografted in BALB/c nude mouse at 3 mg/kg, iv measured at 21 days post treatment in absence of laser irradiation. It is filed as ADME, organism-based. As to conditions: in vivo, 504 h.
For data set [13], the system named is ECa-109 cell line. Briefly: Induction of apoptosis in human ECA109 cells assessed as late apoptotic/necrotic cells at 1 uM preincubated for 24 hrs followed by laser irradiation at 16 J/cm'2 and measured after 24 hrs by annexin V/propidium iodide staining-based flow cytometric method (reference value: 0.08%). The format is functional.
Data set [14] has as its system ECa-109 cell line. Briefly: Induction of apoptosis in human ECA109 cells assessed as early apoptotic cells at 1 uM preincubated for 24 hrs followed by laser irradiation at 16 J/cm'2 and measured after 24 hrs by annexin V/propidium iodide staining-based flow cytometric method (reference value: 2.45%). The format is functional.

For orientation: logP means a log measure of how a compound divides between an organic and an aqueous phase. Read a low logP as lower lipophilicity.

Molecules are shown by their SMILES. The source made the active and inactive calls. The calls are words filed in the database; no cut-off is given here.

In data set [1], `C=Cc1c(C)c2cc3nc(c4c5[nH]c(cc6nc(cc1[nH]2)C(C)=C6CC)c(C)c5C(=O)C4)[C@@H](CCC(=O)N(CCC(=O)OC)CCC(=O)OC)[C@@H]3C` showed a logP of 3.3.
As for `C=Cc1c(C)c2cc3nc(c4c5[nH]c(cc6nc(cc1[nH]2)C(C)=C6CC)c(C)c5C(=O)C4)[C@@H](CCC(=O)O)[C@@H]3C`, in [2], the K amounted to 0.0578 min⁻¹.
In the case of `CCC1=C(C)c2cc3[nH]c(cc4nc(c5c6[nH]c(cc1n2)c(C)c6C(=O)C5)[C@@H](CCC(=O)N(CCC(=O)O)CCC(=O)O)[C@@H]4C)c(C)c3C(C)OC` (stereo partly specified), the Activity in the data set with ECa-109 cell line [3] was 5.41%; in the data set on ECa-109 cell line [5] it was 81.22%; in the data set on ECa-109 cell line [10], “Dose-dependent effect”; in data set [11], “Non-Toxic”; with ECa-109 cell line [12], “Non-Toxic”; with ECa-109 cell line [13] it was 60.46%. Further, the Activity with ECa-109 cell line [14] worked out at 7.38%. For the same compound, the outcome in the data set with ECa-109 cell line [4] and in the data set on ECa-109 cell line [6] was Active. Moreover, the K in data set [2] is 0.0596 min⁻¹. Besides, the viability at 24 h, 5 µM in data set [7] turned out to be 50%. The log partition coefficient (logP) in data set [1] was 2.3. For the same compound, the Drug uptake entry in data set [8] and in data set [9] was “Active” in each case.
On to `CCCCCOC(C)c1c(C)c2cc3nc(c4c5[nH]c(cc6nc(cc1[nH]2)C(C)=C6CC)c(C)c5C(=O)C4)[C@@H](CCC(=O)N(CCC(=O)O)CCC(=O)O)[C@@H]3C` (stereo partly specified), for which the K in data set [2] came out at 0.0241 min⁻¹. In addition, the outcome in the data set on ECa-109 cell line [6] was Active. In addition, in data set [7], the viability at 24 h, 5 µM amounted to 50%. For the same compound, in data set [1], the logP came to 3.1. For the same compound, the Activity entry in data set [11] is listed as “Non-Toxic”.
On the same counts, the results for `CCCOC(C)c1c(C)c2cc3nc(c4c5[nH]c(cc6nc(cc1[nH]2)C(C)=C6CC)c(C)c5C(=O)C4)[C@@H](CCC(=O)N(CCC(=O)O)CCC(=O)O)[C@@H]3C` (stereo partly specified) are 0.0266 min⁻¹, “Active”, 50%, 2.7 and “Non-Toxic”.
